Test results published in patent US12421232B2, “Kinase inhibitor compounds and compositions and methods of use” (ICAHN SCHOOL OF MEDICINE AT MOUNT SINAI, priority 2018, dated 2025).
Like-named read-outs stand apart in the source and are kept apart here. Marks after values point to notes of the source that are not given here.

Experiments:
Assay in all cases: KINOMEscan Assay (DiscoverX)
Type in all cases: binding
PIM2 = biological target: T1, PIM2 (Homo sapiens, UniProt Q9P1W9); conditions: read-out: % DMSO Ctrl
T1 construct: purchased DiscoverX

DYRK1B = biological target: T2, DYRK1B (Homo sapiens, UniProt Q9Y463); conditions: read-out: % DMSO Ctrl
T2 construct: purchased DiscoverX

HIPK2 = biological target: T3, HIPK2 (Homo sapiens, UniProt Q9H2X6); conditions: read-out: % DMSO Ctrl
T3 construct: purchased DiscoverX

CSNK1A1 = biological target: T4, CSNK1A1 (Homo sapiens, UniProt P48729); conditions: read-out: % DMSO Ctrl
T4 construct: purchased DiscoverX

CDK7 = biological target: T5, CDK7 (Homo sapiens, UniProt P50613); conditions: read-out: % DMSO Ctrl
T5 construct: purchased DiscoverX

PIK4CB = biological target: T6, PIK4CB (Homo sapiens, UniProt Q9UBF8); conditions: read-out: % DMSO Ctrl
T6 construct: purchased DiscoverX

DYRK2 = biological target: T7, DYRK2 (Homo sapiens, UniProt Q92630); conditions: read-out: % DMSO Ctrl
T7 construct: purchased DiscoverX
T7 sequence (Q92630 1-601): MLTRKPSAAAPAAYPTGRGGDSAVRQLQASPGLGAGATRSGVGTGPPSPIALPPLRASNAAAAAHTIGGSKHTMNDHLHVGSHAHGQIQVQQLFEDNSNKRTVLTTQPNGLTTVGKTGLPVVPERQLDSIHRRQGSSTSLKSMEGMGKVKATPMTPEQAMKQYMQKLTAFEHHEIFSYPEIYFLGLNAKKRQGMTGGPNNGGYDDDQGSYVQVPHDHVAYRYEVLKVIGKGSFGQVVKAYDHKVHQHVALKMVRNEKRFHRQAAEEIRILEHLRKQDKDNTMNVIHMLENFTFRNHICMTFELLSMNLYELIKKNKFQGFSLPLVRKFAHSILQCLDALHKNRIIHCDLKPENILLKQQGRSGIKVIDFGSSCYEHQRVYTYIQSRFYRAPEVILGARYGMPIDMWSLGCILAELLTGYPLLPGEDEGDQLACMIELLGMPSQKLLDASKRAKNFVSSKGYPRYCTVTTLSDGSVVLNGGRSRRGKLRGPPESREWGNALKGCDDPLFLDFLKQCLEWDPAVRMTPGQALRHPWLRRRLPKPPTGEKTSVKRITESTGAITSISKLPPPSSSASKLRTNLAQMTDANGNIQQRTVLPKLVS

IRAK1 = biological target: T8, IRAK1 (Homo sapiens, UniProt P51617); conditions: read-out: % DMSO Ctrl
T8 construct: purchased DiscoverX

PDGFRA = biological target: T9, PDGFRA (Homo sapiens, UniProt P16234); conditions: read-out: % DMSO Ctrl
T9 construct: purchased DiscoverX

PIKFYVE = biological target: T10, PIKFYVE (Homo sapiens, UniProt Q9Y2I7); conditions: read-out: % DMSO Ctrl
T10 construct: purchased DiscoverX

KIT(V559D) = biological target: T11, KIT(V559D) (Homo sapiens, UniProt P10721, V559D); conditions: read-out: % DMSO Ctrl
T11 construct: purchased DiscoverX

IRAK4 = biological target: T12, IRAK4 (Homo sapiens, UniProt Q9NWZ3); conditions: read-out: % DMSO Ctrl
T12 construct: purchased DiscoverX
T12 sequence (Q9NWZ3 1-460): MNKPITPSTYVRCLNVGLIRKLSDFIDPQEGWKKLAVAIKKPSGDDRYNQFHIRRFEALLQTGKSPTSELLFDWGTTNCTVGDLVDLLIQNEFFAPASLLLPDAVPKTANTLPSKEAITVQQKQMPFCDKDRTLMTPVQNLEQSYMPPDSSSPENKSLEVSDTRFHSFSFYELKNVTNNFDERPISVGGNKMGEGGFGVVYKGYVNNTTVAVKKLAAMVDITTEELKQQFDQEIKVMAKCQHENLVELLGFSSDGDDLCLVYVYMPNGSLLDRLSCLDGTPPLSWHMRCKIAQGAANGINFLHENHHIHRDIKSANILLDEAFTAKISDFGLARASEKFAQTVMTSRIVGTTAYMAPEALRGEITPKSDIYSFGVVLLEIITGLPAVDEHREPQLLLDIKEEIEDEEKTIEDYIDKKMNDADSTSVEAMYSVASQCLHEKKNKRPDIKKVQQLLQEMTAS

MEK2 = biological target: T13, MEK2 (Homo sapiens, UniProt P36507); conditions: read-out: % DMSO Ctrl
T13 construct: purchased DiscoverX

PIK3CG = biological target: T14, PIK3CG (Homo sapiens, UniProt P48736); conditions: read-out: % DMSO Ctrl
T14 construct: purchased DiscoverX

FLT3(ITD,D835V) = FLT3(ITD,D835V) mutant; 10 μM

T11 sequence (P10721 26-976 V559D): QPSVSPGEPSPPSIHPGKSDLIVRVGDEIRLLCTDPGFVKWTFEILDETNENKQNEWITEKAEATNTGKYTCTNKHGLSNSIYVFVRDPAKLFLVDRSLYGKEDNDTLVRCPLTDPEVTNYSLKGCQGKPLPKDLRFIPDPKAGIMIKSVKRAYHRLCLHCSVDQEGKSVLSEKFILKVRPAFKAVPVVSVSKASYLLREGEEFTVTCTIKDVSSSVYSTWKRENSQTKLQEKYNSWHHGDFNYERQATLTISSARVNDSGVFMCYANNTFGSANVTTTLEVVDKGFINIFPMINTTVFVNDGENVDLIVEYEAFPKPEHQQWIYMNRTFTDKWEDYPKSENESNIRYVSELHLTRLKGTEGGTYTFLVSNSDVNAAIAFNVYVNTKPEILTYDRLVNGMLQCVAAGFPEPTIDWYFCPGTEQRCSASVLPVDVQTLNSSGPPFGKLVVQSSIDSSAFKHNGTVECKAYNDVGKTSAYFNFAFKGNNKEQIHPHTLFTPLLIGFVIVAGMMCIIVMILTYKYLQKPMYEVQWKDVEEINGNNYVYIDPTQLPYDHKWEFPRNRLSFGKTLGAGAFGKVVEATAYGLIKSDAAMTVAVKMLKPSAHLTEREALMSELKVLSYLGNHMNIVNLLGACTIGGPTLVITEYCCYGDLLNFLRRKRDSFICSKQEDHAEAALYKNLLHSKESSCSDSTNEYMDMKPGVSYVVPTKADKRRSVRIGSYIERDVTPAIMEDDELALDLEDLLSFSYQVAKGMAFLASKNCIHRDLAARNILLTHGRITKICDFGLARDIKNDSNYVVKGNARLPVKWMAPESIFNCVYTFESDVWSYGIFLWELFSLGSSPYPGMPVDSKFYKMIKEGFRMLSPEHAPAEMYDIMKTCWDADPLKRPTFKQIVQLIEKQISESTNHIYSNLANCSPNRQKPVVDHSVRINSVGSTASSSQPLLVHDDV
T8 sequence (P51617 whole entry): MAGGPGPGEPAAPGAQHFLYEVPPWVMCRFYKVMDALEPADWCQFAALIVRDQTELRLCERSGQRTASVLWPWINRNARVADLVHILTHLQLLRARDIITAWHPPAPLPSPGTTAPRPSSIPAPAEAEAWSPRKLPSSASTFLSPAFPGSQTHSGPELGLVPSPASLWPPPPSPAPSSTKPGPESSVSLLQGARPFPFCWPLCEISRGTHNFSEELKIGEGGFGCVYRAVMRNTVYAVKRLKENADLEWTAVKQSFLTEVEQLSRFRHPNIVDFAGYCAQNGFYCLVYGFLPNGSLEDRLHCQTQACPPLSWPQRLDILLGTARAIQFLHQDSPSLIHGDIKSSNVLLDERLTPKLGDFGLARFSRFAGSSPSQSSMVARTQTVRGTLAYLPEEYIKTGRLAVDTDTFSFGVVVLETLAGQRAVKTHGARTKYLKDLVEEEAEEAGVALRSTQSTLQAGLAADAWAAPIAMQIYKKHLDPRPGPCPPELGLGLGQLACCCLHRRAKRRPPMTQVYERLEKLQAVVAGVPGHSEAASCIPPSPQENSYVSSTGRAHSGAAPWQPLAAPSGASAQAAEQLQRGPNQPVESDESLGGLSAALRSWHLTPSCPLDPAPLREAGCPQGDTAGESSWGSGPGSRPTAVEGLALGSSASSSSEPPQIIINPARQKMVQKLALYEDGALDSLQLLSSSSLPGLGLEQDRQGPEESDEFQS
T5 sequence (P50613 whole entry): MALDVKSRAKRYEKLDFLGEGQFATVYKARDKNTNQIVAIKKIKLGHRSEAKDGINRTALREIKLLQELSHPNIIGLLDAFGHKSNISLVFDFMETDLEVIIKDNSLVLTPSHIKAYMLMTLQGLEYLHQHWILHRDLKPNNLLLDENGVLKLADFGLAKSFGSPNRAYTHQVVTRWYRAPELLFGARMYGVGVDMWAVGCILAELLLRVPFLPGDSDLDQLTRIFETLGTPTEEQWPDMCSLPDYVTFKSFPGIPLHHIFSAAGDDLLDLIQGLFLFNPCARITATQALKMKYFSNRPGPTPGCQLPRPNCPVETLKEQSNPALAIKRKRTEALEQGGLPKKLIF
T3 sequence (Q9H2X6 whole entry): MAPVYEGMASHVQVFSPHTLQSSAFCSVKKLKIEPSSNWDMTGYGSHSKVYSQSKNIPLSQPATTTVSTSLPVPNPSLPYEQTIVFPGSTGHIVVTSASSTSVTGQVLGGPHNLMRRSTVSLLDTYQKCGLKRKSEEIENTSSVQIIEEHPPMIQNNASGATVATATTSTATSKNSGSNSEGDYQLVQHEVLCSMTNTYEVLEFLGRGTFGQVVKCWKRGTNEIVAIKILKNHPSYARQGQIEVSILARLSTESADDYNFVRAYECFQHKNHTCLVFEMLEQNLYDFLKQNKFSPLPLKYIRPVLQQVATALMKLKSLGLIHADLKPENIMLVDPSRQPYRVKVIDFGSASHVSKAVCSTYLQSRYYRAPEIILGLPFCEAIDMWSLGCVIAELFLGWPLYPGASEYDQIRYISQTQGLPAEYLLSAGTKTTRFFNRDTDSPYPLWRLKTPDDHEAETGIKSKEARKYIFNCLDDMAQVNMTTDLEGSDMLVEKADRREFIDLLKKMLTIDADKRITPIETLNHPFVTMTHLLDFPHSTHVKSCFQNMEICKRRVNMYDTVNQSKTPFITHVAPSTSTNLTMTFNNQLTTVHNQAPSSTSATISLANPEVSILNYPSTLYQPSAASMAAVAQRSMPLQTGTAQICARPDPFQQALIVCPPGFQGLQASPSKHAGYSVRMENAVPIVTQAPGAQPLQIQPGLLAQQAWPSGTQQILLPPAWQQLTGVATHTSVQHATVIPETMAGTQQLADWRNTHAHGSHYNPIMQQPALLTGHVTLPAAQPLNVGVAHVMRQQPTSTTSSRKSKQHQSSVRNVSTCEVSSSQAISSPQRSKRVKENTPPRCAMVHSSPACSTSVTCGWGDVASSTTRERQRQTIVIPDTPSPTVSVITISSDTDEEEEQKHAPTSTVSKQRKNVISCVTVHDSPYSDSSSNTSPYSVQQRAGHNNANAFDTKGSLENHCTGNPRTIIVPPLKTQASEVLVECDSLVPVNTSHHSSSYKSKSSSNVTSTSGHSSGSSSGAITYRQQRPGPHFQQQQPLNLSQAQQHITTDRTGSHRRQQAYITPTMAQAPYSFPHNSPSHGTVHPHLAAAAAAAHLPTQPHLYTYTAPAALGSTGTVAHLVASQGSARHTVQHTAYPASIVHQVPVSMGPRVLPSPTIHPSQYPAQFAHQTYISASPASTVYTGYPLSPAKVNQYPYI
T13 sequence (P36507 whole entry): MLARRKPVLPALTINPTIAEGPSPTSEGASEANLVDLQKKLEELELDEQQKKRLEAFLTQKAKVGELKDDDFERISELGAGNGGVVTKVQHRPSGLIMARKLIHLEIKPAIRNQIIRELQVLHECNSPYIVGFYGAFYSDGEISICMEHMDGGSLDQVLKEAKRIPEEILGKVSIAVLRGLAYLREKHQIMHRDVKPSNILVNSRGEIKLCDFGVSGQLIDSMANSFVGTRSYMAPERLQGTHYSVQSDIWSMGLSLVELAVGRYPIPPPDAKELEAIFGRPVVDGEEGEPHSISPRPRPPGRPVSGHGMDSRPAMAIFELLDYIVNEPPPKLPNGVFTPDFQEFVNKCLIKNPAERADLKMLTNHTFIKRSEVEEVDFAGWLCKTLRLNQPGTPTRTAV
T4 sequence (P48729 whole entry): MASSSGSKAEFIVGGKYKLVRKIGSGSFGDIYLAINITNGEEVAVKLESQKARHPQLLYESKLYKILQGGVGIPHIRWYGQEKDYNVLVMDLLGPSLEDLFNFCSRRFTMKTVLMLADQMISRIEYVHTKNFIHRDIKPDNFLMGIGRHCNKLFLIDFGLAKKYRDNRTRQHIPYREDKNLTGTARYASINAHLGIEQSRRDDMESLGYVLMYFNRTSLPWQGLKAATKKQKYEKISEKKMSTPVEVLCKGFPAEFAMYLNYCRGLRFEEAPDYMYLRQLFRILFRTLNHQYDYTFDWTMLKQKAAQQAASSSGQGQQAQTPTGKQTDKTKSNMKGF
T2 sequence (Q9Y463 whole entry): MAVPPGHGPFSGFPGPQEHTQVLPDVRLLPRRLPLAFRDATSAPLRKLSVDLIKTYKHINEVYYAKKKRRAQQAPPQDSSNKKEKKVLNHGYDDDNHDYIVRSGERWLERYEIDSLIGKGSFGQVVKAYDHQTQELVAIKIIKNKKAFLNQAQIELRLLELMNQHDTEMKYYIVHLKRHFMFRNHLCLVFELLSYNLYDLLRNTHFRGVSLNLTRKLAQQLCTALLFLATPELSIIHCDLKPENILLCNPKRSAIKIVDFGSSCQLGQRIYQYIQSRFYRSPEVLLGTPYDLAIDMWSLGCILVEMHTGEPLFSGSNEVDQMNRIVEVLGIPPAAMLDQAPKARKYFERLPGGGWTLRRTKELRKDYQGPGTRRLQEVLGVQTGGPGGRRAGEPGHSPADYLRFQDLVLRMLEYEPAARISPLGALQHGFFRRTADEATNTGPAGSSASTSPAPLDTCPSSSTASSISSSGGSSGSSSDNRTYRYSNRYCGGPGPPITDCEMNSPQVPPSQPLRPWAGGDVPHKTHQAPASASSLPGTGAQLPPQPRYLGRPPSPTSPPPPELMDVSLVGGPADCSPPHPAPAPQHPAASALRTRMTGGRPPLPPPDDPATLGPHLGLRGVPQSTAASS
T1 sequence (Q9P1W9 whole entry): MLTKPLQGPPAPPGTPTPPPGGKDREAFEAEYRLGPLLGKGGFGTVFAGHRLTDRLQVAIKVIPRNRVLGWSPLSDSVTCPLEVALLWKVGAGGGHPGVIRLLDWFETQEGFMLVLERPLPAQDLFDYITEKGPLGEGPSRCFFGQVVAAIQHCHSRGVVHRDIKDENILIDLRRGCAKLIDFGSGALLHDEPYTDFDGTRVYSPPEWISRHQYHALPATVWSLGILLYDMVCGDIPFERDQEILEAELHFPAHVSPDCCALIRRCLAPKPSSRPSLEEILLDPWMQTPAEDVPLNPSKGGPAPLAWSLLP

SMILES: COc1ccc2c(c1)[nH]c1c(C)nccc12 [Harmine, reference compound]
- remaining binding at 10 µM (PIM2): 39%
- remaining binding at 10 µM (DYRK1B): 6.1%
- remaining binding at 10 µM (HIPK2): 8.6%
- remaining binding at 10 µM (CSNK1A1): 5%
- remaining binding at 10 µM (CDK7): 21%
- remaining binding at 10 µM (PIK4CB): 12%
- remaining binding at 10 µM (DYRK2): 3.2%
- remaining binding at 10 µM (IRAK1): 17%

SMILES: C#CCn1c2cc(OC)ccc2c2ccnc(C)c21 [Compound 20-23a, 3-(7-Methoxy-1-methyl-β-carbolin-9-yl)-propan-1-yne]
- remaining binding at 10 µM (PDGFRA): 100%
- remaining binding at 10 µM (PIKFYVE): 60%
- remaining binding at 10 µM (PIM2; PIM2, 10 μM): 19%
- remaining binding at 10 µM (DYRK1B; DYRK1B, 10 μM): 1.1%
- remaining binding at 10 µM (HIPK2; HIPK2, 10 μM): 71%
- remaining binding at 10 µM (KIT(V559D)): 90%
- remaining binding at 10 µM (CSNK1A1; CSNK1A1, 10 μM): 13%
- remaining binding at 10 µM (CDK7; CDK7, 10 μM): 0.8%
- remaining binding at 10 µM (PIK4CB; PIK4CB, 10 μM): 0%
- remaining binding at 10 µM (DYRK2): 5.2%
- remaining binding at 10 µM (IRAK1; IRAK1, 10 μM): 42%
- remaining binding at 10 µM (IRAK4): 6.4%
- remaining binding at 10 µM (MEK2): 96%
- remaining binding at 10 µM (PIK3CG): 42%
- % DMSO Ctrl (FLT3(ITD,D835V)): 11 ^c % DMSO Ctrl

SMILES: COc1ccc2c3ccnc(C)c3n(CCCc3noc(N)n3)c2c1 [Compound 20-13, 3-(3-(7-Methoxy-1-methyl-β-carbolin-9-yl)propyl)-5-amino-1,2,4-oxadiazole]
- remaining binding at 10 µM (PDGFRA): 83%
- remaining binding at 10 µM (PIKFYVE): 3.2%
- remaining binding at 10 µM (PIM2): 38%
- remaining binding at 10 µM (DYRK1B): 1%
- remaining binding at 10 µM (HIPK2): 2.3%
- remaining binding at 10 µM (KIT(V559D)): 100%
- remaining binding at 10 µM (CSNK1A1): 33%
- remaining binding at 10 µM (CDK7): 51%
- remaining binding at 10 µM (PIK4CB): 9.9%
- remaining binding at 10 µM (DYRK2): 9.1%
- remaining binding at 10 µM (IRAK1): 58%
- remaining binding at 10 µM (IRAK4): 90%
- remaining binding at 10 µM (MEK2): 0%
- remaining binding at 10 µM (PIK3CG): 3.3%
- % DMSO Ctrl (FLT3(ITD,D835V)): 11 ^c % DMSO Ctrl

SMILES: COc1ccc2c(c1)[nH]c1c(C)nc(CO)cc12 [Compound 2-8, (1-Methyl-7-methoxy-9H-pyrido[3,4-b]indol-3-yl)methanol]
- remaining binding at 10 µM (PDGFRA; PDGFRA, 10 μM): 100%
- remaining binding at 10 µM (PIKFYVE; PIKFYVE, 10 μM): 88%
- remaining binding at 10 µM (KIT(V559D); KIT(V559D) mutant, 10 μM): 82%
- remaining binding at 10 µM (IRAK4; IRAK4, 10 μM): 70%
- remaining binding at 10 µM (MEK2; MEK2, 10 μM): 100%
- remaining binding at 10 µM (PIK3CG; PIK3CG, 10 μM): 67%
- % DMSO Ctrl (FLT3(ITD,D835V)): 37 % DMSO Ctrl
